Source: the supplement of paper PMC10307832

Experiments:
Assay in all cases: relative viability (nuclei count vs DMSO), 5 days (fraction); higher = more cells survive
[1] = compound: COc1cc2nc(N3CCCN(C)CC3)nc(NC3CCN(Cc4ccccc4)CC3)c2cc1OC + CS(=O)(=O)N1CCN(Cc2cc3nc(-c4cccc5[nH]ncc45)nc(N4CCOCC4)c3s2)CC1 [Pictilisib] (partner 1 µM)
Summary of the method: (§1)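 After 5 days of treatment, lung cancer cells in 1536-well plates were fixed and stained in a single step (final 0.05% Triton X-100, 1% formaldehyde, 1 ug/ml Hoechst) and their nuclei counted on 4× images. Treatment had been applied by pin tool the day after seeding as one drug alone or as a fixed anchor-drug dose with five library-drug doses (not always all listed) in √10 steps. Relative viability is the nuclei count of treated wells divided by that of vehicle wells, and values are medians of duplicate plates.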

[2] = compound: COc1cc2nc(N3CCCN(C)CC3)nc(NC3CCN(Cc4ccccc4)CC3)c2cc1OC + NC(=O)Nc1cc(-c2cccc(F)c2)sc1C(=O)N[C@H]1CCCNC1 [AZD7762] (partner 0.2 µM)
Summary of the method: as §1

[3] = compound: Cc1cc([C@@H](C)Nc2ccccc2C(=O)O)c2nc(N3CCOCC3)cc(=O)n2c1 [AZD6482] + N=C(N)NC(=N)NCCc1ccccc1 [Phenformin] (partner 250 µM)
Summary of the method: as §1

[4] = compound: COc1cc2nc(N3CCCN(C)CC3)nc(NC3CCN(Cc4ccccc4)CC3)c2cc1OC + CC(=O)Nc1cccc(-n2c(=O)n(C3CC3)c(=O)c3c(Nc4ccc(I)cc4F)n(C)c(=O)c(C)c32)c1 [Trametinib] (partner 0.02 µM)
Summary of the method: as §1

Cell Line | relative viability ([1]; first compound 0.2 µM) | relative viability ([1]; first compound 0.6325 µM) | relative viability ([1]; first compound 2 µM) | relative viability ([1]; first compound 6.325 µM) | relative viability ([2]; first compound 0.2 µM) | relative viability ([2]; first compound 0.6325 µM) | relative viability ([2]; first compound 2 µM) | relative viability ([2]; first compound 6.325 µM) | relative viability ([3]; first compound 0.08 µM) | relative viability ([3]; first compound 0.253 µM) | relative viability ([3]; first compound 0.8 µM) | relative viability ([3]; first compound 2.53 µM) | relative viability ([3]; first compound 8 µM) | relative viability ([4]; first compound 0.2 µM) | relative viability ([4]; first compound 0.6325 µM) | relative viability ([4]; first compound 2 µM) | relative viability ([4]; first compound 6.325 µM)
IA-LM | 0.342 | 0.389 | 0.419 | 0.322 | – | – | – | – | – | – | – | – | – | – | – | – | –
NCI-H322M | 0.489 | 0.604 | 0.486 | 0.548 | 0.48 | 0.665 | 0.444 | 0.549 | 0.705 | 0.673 | 0.712 | 0.414 | 0.537 | 0.503 | 0.495 | 0.531 | 0.512
NCI-H3122 | 0.589 | 0.634 | 0.601 | 0.478 | 1.1 | 0.918 | 1.02 | 0.983 | 0.385 | 0.381 | 0.371 | – | 0.412 | 0.239 | 0.199 | 0.197 | 0.208
COR-L23 | 0.843 | 0.701 | 0.931 | 0.772 | – | – | – | – | 0.412 | 0.445 | 0.455 | 0.343 | 0.373 | 0.635 | 0.466 | 0.748 | 0.638
NCI-H2087 | 0.752 | 0.996 | 0.872 | 0.834 | 1.48 | 1.18 | 1.46 | 1.22 | 0.44 | 0.442 | 0.474 | – | 0.385 | 0.244 | 0.215 | 0.144 | 0.206
LC-2-ad | 0.481 | 0.467 | 0.534 | 0.473 | 0.827 | 0.908 | 0.941 | 0.91 | 0.615 | 0.497 | 0.6 | 0.442 | 0.471 | 0.934 | 0.871 | 0.942 | 0.941
NCI-H1915 | 0.94 | 0.97 | 1.04 | 0.865 | 0.698 | 0.586 | 0.72 | 0.764 | 0.379 | 0.334 | 0.384 | 0.326 | 0.357 | 0.309 | 0.295 | 0.309 | 0.277
NCI-H1793 | 0.317 | 0.342 | 0.282 | 0.372 | 0.43 | 0.617 | 0.357 | 0.432 | 0.338 | 0.311 | 0.24 | 0.191 | 0.15 | 0.374 | 0.39 | 0.412 | 0.373
NCI-H2023 | 0.204 | 0.279 | 0.211 | 0.0903 | – | – | – | – | 0.384 | 0.368 | 0.379 | 0.261 | 0.29 | 0.598 | 0.577 | 0.501 | 0.116
COR-L 105 | 0.349 | 0.435 | 0.34 | 0.327 | – | – | – | – | 0.515 | 0.443 | 0.446 | 0.409 | 0.299 | 0.429 | 0.515 | 0.403 | 0.439
RERF-LC-KJ | 0.458 | 0.559 | 0.585 | 0.579 | 1.03 | 0.932 | 0.999 | 0.888 | 0.424 | 0.401 | 0.368 | 0.394 | 0.292 | 0.829 | 0.862 | 0.928 | 0.803
NCI-H520 | 0.292 | 0.329 | 0.332 | 0.21 | – | – | – | – | 0.402 | 0.283 | 0.285 | 0.166 | 0.225 | 0.744 | 0.637 | 0.674 | 0.176
SK-LU-1 | 0.702 | 0.604 | 0.559 | 0.401 | – | – | – | – | – | 0.454 | 0.502 | 0.347 | 0.237 | 0.554 | 0.541 | 0.516 | 0.459
NCI-H2342 | – | – | – | – | 0.472 | 0.748 | 0.652 | 0.497 | 0.517 | 0.569 | 0.682 | 0.373 | 0.429 | 0.916 | 0.963 | 0.818 | 0.803
NCI-H1299 | 0.734 | 0.777 | 1.05 | 0.649 | – | – | – | – | – | – | – | – | – | – | – | – | –
NCI-H1650 | 0.543 | 0.699 | 0.544 | 0.548 | – | – | – | – | 0.333 | 0.369 | 0.373 | 0.233 | 0.297 | 0.576 | 0.601 | 0.499 | 0.511
NCI-H2009 | 0.686 | 0.859 | 0.962 | 0.673 | – | – | – | – | 0.476 | 0.49 | 0.442 | 0.283 | 0.34 | 0.277 | 0.305 | 0.323 | 0.289
SW 900 | – | – | – | – | 0.62 | 0.564 | 0.611 | 0.577 | 0.48 | 0.29 | 0.449 | – | 0.414 | 0.661 | 0.753 | 0.584 | 0.688
SK-MES-1 | 0.339 | 0.41 | 0.364 | 0.31 | – | – | – | – | 0.612 | 0.75 | 0.611 | 0.357 | 0.406 | 0.597 | 0.56 | 0.599 | 0.471
NCI-H1648 | – | – | – | – | – | 0.708 | – | 0.68 | – | – | – | – | – | – | 0.511 | – | 0.532
NCI-H522 | – | – | – | – | 0.901 | 0.791 | 0.986 | 0.792 | 0.607 | 0.764 | 0.7 | 0.654 | 0.396 | 0.754 | 0.728 | 0.749 | 0.817
A549 | 0.551 | 0.569 | 0.622 | 0.473 | – | – | – | – | 0.154 | 0.14 | 0.222 | 0.158 | 0.153 | – | – | – | –
NCI-H661 | 0.338 | 0.406 | 0.428 | 0.466 | – | – | – | – | 0.285 | 0.274 | 0.297 | 0.245 | 0.216 | 0.612 | 0.563 | 0.648 | 0.586
NCI-H1563 | 0.566 | 0.622 | 0.558 | 0.55 | – | – | – | – | 0.684 | 0.653 | 0.67 | 0.65 | 0.629 | – | – | – | –
ABC-1 | 0.618 | 0.926 | 0.699 | 0.611 | 0.753 | 0.772 | 0.79 | 0.91 | 0.212 | 0.237 | 0.283 | 0.229 | 0.205 | – | – | – | –
